Experimental data reported in paper PMC3822755 (Bioorganic & medicinal chemistry letters, 2013).

What was measured:
[1] = test system: VSV-GP (vesicular stomatitis virus particle bearing the EBOV GP); assay type: cell-based
[2] = test system: VSV-G (VSV bearing its native envelope glycoprotein G); assay type: cell-based, vesicular stomatitis virus; Vero host cells

Compound | activity against VSV-GP entry (in words) [1] | inhibition of VSV-GP entry [1] [%] | potency against VSV-GP compared with 1-Chol and 2-Chol ([1]; 20 µM) | activity against VSV-G (in words) [2]
KKKKGSGC(Chol) ^b [Peptide 3-Chol] | active | > 90 | much less potent | active
CC(C)CCC[C@@H](C)[C@H]1CC[C@H]2[C@@H]3CC=C4C[C@@H](O)CC[C@]4(C)[C@H]3CC[C@]12C [cholesterol, reference compound] | relatively modest effects |  |  | 
